For one experiment, the system named is mouse washed platelets. As to the kind of experiment: Platelet aggregation of mouse washed platelets. Format: cell-based. As to conditions: 1 U/mL human thrombin, 1 μM human CatG or 1 mM RA-11mer. The source says:
Animal studies. Mouse platelets were isolated as previously described from C57BL/6 mice (Denorme et al., Blood. 2020; 135(6):429-440). Dog platelets were isolated from whole blood drawn into ACD using a similar isolation procedure as for human platelets. All animal studies were approved by the University of Utah Institutional Animal Care and Use Committee (18-10012).
Platelet and neutrophil isolation. Platelets and neutrophils were isolated as previously described (Yost et al., J Clin Invest. 2016; 126(10):3783-3798). Platelet isolation from dogs, rats and mice was approved by the IACUC. Platelet activation and aggregation were performed as previously described (Manne et al., Blood. 2020; 136(11): 1317-1329).
(§1) Platelet isolation, aggregation, and activation. Human washed platelets were prepared and resuspended in Tyrode's Buffer at 2×10^8/mL as described (Edelstein et al., Nat Med. 2013; 19(12):1609-1616). For human and dog platelet comparisons, platelets were prepared using a modified human platelet protocol with final concentrations of […] (Cayman Chemical, Ann Arbor, MI, USA) used during centrifugation steps. Centrifugations after Tyrode's washes was decreased to 1,250×g as described in Cremer et al., PLOS One. 2019; 14(11): e0224891. Platelet aggregation was measured under stirring conditions at 37° C. using a PAP-8E aggregometer after treatment with the following agonists: arachidonic acid (Bio/Data Corporation, Horsham, PA, USA), cathepsin G, elastase, proteinase 3 (Athens Research Group), α-thrombin (Sigma, St. Louis, MO, USA), PAR-1 peptide (SFLLRN) (GL Biochem, China). P-selectin and PAC-1 were measured as previously described (Yee et al., J Thromb Haemost. 2006; 4(9):2043-2050; Tourdot et al., Arterioscler Thromb Vasc Biol. 2014; 34(12):2644-2650).

In another experiment the test system is washed platelets. As to the kind of experiment: Platelet aggregation of human washed platelets. Type of experiment: cell-based. The conditions noted are these: for platelet aggregation, species comparison: humans: 1 U/mL human thrombin, 1 μM human CatG or 1 mM RA-11mer. The procedure: as §1
GYPGQV-NH2 (SEQ ID NO: 5), RALLLGWVPTR-NH2 (SEQ ID NO: 1), ALLLGWVPTR-NH2 (SEQ ID NO: 2), RALLLG-NH2 (SEQ ID NO: 4). Peptides were synthesized by BIOMATIK (Wilmington, DE, USA) at similar purities. All peptides were suspended in 50% DMSO and 50% ethanol. To measure platelet activation, washed platelets were stimulated with various concentrations of the peptide in the presence of CD41-APC, P-selectin (PE) and PAC-1 (FITC) for 15 minutes at 37° C. and then fixed with FACS Lysis Buffer. Samples were immediately run on a Cytoflex flow cytometer. In some experiments, platelets were stimulated with peptides and platelet aggregation performed as described above. Platelet calcium flux was induced by RALLLGWVPTR (2 mM; SEQ ID NO: 1), CatG (500 nM), ALLLGWVPTR (2 mM; SEQ ID NO: 2) or tyrodes buffer and monitored as described above.

The next experiment deals with T1, PAR4-C (SEQ ID NO: 8) (Homo sapiens, UniProt Q96RI0).
T1 construct: purchased BIOMATIK (Wilmington, DE, USA); host or cells: chemical synthesis
As to the kind of experiment: PAR4 peptide cleavage analysis by LC-MS/MS, PAR4-C. Type of experiment: biochemical. The conditions noted are these: CatG 400 nM, 37° C., 15 minutes; thrombin. The method, then:
(§2) PAR-4 Peptide and Cleavage Analysis. PAR4 synthetic peptides were incubated with protease, snapped frozen, and sent for mass spectrometry analysis. PAR-4B ([…]; SEQ ID NO: 7) and PAR-4C ([…]; SEQ ID NO: 8) were synthesized by BIOMATIK (Wilmington, DE, USA). PAR4-B and PAR4-C were incubated with vehicle, thrombin (100 nM) or cathepsin G (400 nM) at 37° C. for 15 minutes to an hour depending on the experimental condition. After digestion with the indicated protease, reactions were snapped frozen and sent to the University of Arizona, Analytical and Biological Mass Spectrometry Core Facility (Tucson, Arizona) for analysis. LC-MS/MS analysis was done on a Q Exactive Plus mass spectrometer (Thermo Fisher Scientific, San Jose, CA) equipped with an EASY-Spray nanoESI source. […] The peptide identification results were further analyzed with Scaffold Q+S v 4.8.7 (Proteome Software Inc., Portland OR), a program that relies on various search engine results (i.e.: Sequest, X!Tandem, MASCOT) and which uses Bayesian statistics to reliably identify more spectra9.

The target of another experiment is T2, PAR4-B (SEQ ID NO: 7) (Homo sapiens, UniProt Q96RI0).
T2 construct: purchased BIOMATIK (Wilmington, DE, USA); host or cells: chemical synthesis
As to the kind of experiment: PAR4 peptide cleavage analysis by LC-MS/MS, PAR4-B. Type of experiment: biochemical. The conditions noted are these: thrombin 100 U/mL or 100 nM, CatG 400 nM, 37° C. The method, then: as §2, with “source. Peptides (500 ng) were injected onto an Acclaim Pepmap 100 trap column (75 micron ID x 2 cm, Thermo Scientific), washed for 10 min at 3% mobile phase B (acetonitrile, 0.1% formic acid, mobile phase A consisting of water and 0.1% formic acid) then eluted onto an Acclaim PepMap RSLC analytical column (75 micron ID x 25 cm, Thermo Scientific using a 3-20% gradient of B over 40 min, 20-50% solvent B over 5 min, 50-95% of solvent B over 5 min, then a hold of solvent 95% B for 10 min, and finally a return to 3% solvent B for 1 min, then a hold at 3% B for 10 min. Flow rates were 300 nL/min using a Dionex Ultimate 3000 RSLCnano System (Thermo Scientific).” for “source.”

This note sets out measurements from patent US12077607B2, “Functional and therapeutic effects of PAR4 cleavage by cathepsin G” (UNIVERSITY OF UTAH RESEARCH FOUNDATION, priority 2021, dated 2024).

Entries after “also recorded” stand apart in the source; their conditions may differ.

T2 sequence (Q96RI0 36-58 limits assumed): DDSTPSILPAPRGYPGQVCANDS
T1 sequence (Q96RI0 57-78 limits assumed): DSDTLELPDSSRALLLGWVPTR

Take “CatG: serine protease cathepsin G released by activated neutrophils”: in the experiment with mouse washed platelets, the “platelet aggregation, species comparison: mice” value was “only induced platelet aggregation in humans and dogs”. Moreover, the “platelet aggregation, species comparison: humans” value in the experiment on washed platelets is “induced platelet aggregation”. Also, in the experiment with washed platelets (from platelet aggregation data), the “potency as activator of PAR4, comparison” value is recorded as “much less potent than the thrombin enzyme”. Moreover, the “platelet aggregation induced by neutrophil serine protease” value with washed platelets (washed platelets, 400 nM protease) is recorded as “only protease to induce platelet aggregation”. Moreover, the “cleavage of PAR4-C peptide” value with PAR4-C (SEQ ID NO: 8) was “cleavage between Ser67 (S67)-Arg68 (R68)”. Also, the “cleavage of PAR4-B peptide” value with PAR4-B (SEQ ID NO: 7) is given as “largely intact; also recorded: little cleavage”.
For thrombin, the “platelet aggregation, species comparison: mice” value in the experiment with mouse washed platelets was “induced platelet aggregation”. Further, in the experiment on washed platelets, the “platelet aggregation, species comparison: humans” value is recorded as “induced platelet aggregation”. Further, at PAR4-C (SEQ ID NO: 8), the “cleavage of PAR4-C peptide” value was “failed to cleave”. For the same substance, the “cleavage of PAR4-B peptide” value at PAR4-B (SEQ ID NO: 7) is “cleaved by thrombin between amino acids Arg47 and Gly48”; on PAR4-B (SEQ ID NO: 7) (listed as Thrombin), “proteolyzed virtually all”.
